Results: BindingDB's records for doi:10.1016/0166-4328(96)00087-3 (Smithkline Beecham Pharmaceuticals, 1996)
Values joined by “and” are separate entries in the source; they are usually repeats but may differ in a detail not shown here. Equal entries are not always repeated.

What was measured:
[1] = target: 5-hydroxytryptamine receptor 2A (Rattus norvegicus, UniProt P14842)
Histamine H1 receptor = Histamine H1 receptor (Cavia porcellus, UniProt P31389)
[2] = target: 5-hydroxytryptamine receptor 1B (Homo sapiens, UniProt P28222)
[3] = target: 5-hydroxytryptamine receptor 1E (Homo sapiens, UniProt P28566)
D(2) dopamine receptor [4] = target: D(2) dopamine receptor (Homo sapiens, UniProt P14416)
D(2) dopamine receptor (Homo sapiens, UniProt P14416), sequence (P14416 whole entry): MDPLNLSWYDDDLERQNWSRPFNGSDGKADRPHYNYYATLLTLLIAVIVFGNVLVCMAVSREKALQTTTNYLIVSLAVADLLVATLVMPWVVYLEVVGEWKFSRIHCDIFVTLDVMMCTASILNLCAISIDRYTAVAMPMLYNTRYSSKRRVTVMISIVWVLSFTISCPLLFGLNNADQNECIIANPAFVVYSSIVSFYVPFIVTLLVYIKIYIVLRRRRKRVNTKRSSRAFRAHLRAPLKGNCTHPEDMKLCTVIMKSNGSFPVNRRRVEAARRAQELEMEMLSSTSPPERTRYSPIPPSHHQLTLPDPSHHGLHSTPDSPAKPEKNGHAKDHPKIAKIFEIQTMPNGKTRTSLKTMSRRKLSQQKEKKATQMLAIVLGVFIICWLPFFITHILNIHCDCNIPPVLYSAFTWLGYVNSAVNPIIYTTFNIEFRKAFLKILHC

[5] = target: Alpha-1A adrenergic receptor (Rattus norvegicus, UniProt P43140)
Alpha-1A adrenergic receptor (Rattus norvegicus, UniProt P43140), sequence (P43140 whole entry): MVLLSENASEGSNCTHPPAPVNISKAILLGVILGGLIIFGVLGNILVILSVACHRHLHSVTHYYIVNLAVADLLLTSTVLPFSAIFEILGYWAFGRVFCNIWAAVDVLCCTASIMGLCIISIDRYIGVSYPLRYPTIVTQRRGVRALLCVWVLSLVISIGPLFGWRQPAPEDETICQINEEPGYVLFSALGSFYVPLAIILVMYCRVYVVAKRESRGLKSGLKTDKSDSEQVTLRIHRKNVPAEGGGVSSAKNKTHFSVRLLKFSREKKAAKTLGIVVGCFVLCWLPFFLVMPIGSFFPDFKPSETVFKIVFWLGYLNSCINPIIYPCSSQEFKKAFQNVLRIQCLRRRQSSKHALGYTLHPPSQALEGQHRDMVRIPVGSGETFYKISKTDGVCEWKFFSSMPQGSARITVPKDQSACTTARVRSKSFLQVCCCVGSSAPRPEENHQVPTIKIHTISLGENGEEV

D(1A) dopamine receptor [6] = target: D(1A) dopamine receptor (Homo sapiens, UniProt P21728)
[7] = target: Gamma-aminobutyric acid receptor subunit alpha-1 (Rattus norvegicus, UniProt P62813)
[8] = target: 5-hydroxytryptamine receptor 2B (Rattus norvegicus, UniProt P30994)
5-hydroxytryptamine receptor 2B, sequence (P30994 whole entry): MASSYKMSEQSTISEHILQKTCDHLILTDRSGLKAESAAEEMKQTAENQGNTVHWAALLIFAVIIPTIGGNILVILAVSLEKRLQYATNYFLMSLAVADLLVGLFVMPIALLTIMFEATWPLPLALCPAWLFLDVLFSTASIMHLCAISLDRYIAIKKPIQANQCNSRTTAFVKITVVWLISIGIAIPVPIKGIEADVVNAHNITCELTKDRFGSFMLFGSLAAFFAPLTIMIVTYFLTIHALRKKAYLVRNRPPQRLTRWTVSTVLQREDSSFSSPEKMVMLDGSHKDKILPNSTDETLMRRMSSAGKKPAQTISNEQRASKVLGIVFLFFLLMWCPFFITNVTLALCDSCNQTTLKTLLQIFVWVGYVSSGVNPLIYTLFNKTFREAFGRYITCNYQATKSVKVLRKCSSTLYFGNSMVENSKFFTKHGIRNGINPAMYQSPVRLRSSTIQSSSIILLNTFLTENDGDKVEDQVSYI

[9] = target: 5-hydroxytryptamine receptor 2C (Sus scrofa, UniProt G7ZKZ7)
5-hydroxytryptamine receptor 2C (Sus scrofa, UniProt G7ZKZ7), sequence (G7ZKZ7 whole entry): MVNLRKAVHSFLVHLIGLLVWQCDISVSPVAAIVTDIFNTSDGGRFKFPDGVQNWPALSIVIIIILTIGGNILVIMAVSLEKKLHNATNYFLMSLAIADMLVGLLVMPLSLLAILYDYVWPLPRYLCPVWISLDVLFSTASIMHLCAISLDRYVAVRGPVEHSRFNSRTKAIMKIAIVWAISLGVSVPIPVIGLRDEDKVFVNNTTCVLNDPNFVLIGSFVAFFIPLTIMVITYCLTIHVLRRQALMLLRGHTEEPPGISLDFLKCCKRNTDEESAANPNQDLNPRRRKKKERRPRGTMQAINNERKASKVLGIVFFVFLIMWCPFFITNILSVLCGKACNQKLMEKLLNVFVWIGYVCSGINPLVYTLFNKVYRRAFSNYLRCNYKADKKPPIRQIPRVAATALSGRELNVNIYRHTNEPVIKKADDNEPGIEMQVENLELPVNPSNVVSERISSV

[10] = target: 5-hydroxytryptamine receptor 4 (Sus scrofa, UniProt Q29006)
5-hydroxytryptamine receptor 4, sequence (Q29006 whole entry): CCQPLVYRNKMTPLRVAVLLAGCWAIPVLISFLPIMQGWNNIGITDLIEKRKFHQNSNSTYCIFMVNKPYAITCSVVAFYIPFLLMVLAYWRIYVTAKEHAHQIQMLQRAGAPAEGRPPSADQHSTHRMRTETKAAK

[11] = target: Alpha-2C adrenergic receptor (Rattus norvegicus, UniProt P22086)
Alpha-2C adrenergic receptor, sequence (P22086 whole entry): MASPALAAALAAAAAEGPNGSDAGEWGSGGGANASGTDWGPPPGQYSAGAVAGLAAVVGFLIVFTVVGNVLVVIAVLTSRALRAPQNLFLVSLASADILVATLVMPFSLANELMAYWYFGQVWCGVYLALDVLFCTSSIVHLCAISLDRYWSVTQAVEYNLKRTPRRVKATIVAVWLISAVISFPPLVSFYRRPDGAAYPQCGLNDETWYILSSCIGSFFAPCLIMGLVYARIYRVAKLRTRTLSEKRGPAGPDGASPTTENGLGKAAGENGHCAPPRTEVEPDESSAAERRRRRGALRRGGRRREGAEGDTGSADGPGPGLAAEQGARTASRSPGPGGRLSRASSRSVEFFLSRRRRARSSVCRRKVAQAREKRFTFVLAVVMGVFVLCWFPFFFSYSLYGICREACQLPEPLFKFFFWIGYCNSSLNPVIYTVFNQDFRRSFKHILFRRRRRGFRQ

[12] = target: 5-hydroxytryptamine receptor 1D (Homo sapiens, UniProt P28221)
[13] = target: 5-hydroxytryptamine receptor 1A (Rattus norvegicus, UniProt P19327)
5-hydroxytryptamine receptor 1A, sequence (P19327 whole entry): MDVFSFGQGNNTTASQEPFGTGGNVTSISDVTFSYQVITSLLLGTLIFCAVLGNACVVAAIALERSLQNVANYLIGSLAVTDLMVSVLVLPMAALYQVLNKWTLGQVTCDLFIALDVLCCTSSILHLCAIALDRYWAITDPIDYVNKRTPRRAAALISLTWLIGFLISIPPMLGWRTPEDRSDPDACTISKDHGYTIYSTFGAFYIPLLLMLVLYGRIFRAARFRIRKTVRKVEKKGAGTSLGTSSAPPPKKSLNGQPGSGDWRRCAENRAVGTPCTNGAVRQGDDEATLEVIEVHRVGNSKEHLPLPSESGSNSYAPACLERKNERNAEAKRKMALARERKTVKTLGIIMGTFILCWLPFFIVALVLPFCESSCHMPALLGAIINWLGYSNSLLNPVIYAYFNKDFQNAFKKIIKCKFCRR

D(2) dopamine receptor [14] = target: D(2) dopamine receptor (Rattus norvegicus, UniProt P61169)
[15] = target: 5-hydroxytryptamine 1D receptor (Bos taurus, UniProt Q8MI13)
5-hydroxytryptamine 1D receptor, sequence (Q8MI13 whole entry): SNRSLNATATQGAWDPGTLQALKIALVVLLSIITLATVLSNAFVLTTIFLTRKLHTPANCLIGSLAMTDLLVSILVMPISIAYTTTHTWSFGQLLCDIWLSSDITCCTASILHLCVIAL

[16] = target: 5-hydroxytryptamine receptor 1B (Oryctolagus cuniculus, UniProt P49144)
[17] = target: 5-hydroxytryptamine receptor 2A (Oryctolagus cuniculus, UniProt G1SYA7)
[18] = target: Alpha-1A adrenergic receptor (Oryctolagus cuniculus, UniProt O02824)
[19] = target: Beta-1 adrenergic receptor (Cavia porcellus, UniProt B0FL73)
[20] = target: Beta-2 adrenergic receptor (Sylvilagus floridanus, UniProt Q9BFY9)
[21] = target: Muscarinic acetylcholine receptor M3 (Sus scrofa, UniProt P11483)
D(1A) dopamine receptor [22] = target: D(1A) dopamine receptor (Rattus norvegicus, UniProt P18901)
D(1A) dopamine receptor (Rattus norvegicus, UniProt P18901), sequence (P18901 whole entry): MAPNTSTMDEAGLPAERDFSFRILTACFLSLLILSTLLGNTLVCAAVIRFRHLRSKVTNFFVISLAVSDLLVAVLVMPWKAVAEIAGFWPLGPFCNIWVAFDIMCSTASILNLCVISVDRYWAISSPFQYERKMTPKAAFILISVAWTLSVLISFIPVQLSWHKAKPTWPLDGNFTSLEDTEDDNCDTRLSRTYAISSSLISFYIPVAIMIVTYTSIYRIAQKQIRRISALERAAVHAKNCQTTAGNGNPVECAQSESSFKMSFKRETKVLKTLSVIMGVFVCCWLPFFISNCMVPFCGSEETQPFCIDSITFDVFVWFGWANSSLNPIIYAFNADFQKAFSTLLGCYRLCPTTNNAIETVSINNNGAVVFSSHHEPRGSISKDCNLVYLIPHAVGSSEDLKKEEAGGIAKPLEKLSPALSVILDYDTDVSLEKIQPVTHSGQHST

Histamine H2 receptor = Histamine H2 receptor (Oryctolagus cuniculus, UniProt G1TWL8)
[23] = target: Beta-1 adrenergic receptor (Rattus norvegicus, UniProt P18090)
[24] = target: 5-hydroxytryptamine receptor 2C (Rattus norvegicus, UniProt P08909)
5-hydroxytryptamine receptor 2C (Rattus norvegicus, UniProt P08909), sequence (P08909 whole entry): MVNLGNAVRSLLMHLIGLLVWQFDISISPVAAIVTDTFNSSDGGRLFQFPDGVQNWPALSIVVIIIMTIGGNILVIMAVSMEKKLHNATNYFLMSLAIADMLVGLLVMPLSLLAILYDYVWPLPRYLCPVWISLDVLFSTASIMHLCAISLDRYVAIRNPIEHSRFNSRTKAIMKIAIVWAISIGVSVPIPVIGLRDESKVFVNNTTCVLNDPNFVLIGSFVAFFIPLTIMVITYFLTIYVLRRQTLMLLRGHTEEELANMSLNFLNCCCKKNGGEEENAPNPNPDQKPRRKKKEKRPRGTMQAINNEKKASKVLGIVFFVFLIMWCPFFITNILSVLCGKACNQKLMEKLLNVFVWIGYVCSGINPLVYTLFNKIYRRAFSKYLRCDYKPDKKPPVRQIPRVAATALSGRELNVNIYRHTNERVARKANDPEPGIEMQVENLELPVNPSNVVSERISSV

[25] = target: 5-hydroxytryptamine receptor 1D (Cavia porcellus, UniProt Q60484)
[26] = target: 5-hydroxytryptamine receptor 3A (Rattus norvegicus, UniProt P35563)
[27] = target: Alpha-2B adrenergic receptor (Rattus norvegicus, UniProt P19328)
[28] = target: Beta-2 adrenergic receptor (Rattus norvegicus, UniProt P10608)
[29] = target: 5-hydroxytryptamine receptor 2C (Homo sapiens, UniProt P28335)
[30] = target: Alpha-2A adrenergic receptor (Homo sapiens, UniProt P08913)

5-hydroxytryptamine receptor 2A (Rattus norvegicus, UniProt P14842), sequence (P14842 whole entry): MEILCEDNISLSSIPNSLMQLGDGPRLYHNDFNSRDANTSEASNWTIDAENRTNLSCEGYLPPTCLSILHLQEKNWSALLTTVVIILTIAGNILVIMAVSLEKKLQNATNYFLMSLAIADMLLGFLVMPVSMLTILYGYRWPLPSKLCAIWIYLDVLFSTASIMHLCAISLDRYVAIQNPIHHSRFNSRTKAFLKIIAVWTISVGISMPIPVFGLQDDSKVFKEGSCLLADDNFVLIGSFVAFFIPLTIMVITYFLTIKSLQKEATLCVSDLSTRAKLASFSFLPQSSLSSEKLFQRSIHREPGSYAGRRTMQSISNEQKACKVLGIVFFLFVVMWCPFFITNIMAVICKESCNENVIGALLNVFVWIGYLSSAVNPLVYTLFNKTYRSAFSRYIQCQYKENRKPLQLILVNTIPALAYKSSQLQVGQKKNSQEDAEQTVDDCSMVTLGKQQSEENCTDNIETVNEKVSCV
Histamine H1 receptor, sequence (P31389 whole entry): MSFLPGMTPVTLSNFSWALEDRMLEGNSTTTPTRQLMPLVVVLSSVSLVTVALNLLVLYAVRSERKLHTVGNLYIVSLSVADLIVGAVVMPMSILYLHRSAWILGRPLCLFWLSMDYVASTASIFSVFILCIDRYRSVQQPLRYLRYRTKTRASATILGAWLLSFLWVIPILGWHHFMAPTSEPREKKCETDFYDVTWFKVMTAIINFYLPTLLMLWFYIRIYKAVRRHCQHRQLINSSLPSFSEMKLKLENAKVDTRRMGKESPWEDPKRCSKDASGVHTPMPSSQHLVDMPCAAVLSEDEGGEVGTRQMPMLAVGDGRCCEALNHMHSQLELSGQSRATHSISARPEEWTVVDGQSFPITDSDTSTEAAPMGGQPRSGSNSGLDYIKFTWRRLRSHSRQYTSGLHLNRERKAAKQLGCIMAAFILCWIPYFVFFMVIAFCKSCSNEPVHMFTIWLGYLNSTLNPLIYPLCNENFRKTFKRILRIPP

## Cc1cc(NC(=O)Nc2ccc3c(ccn3C)c2)sn1 [CAS_3277600]
[1]
  Ki: 5.01 µM
Histamine H1 receptor
  Ki: > 10 µM
[2]
  Ki: > 10 µM
[3]
  Ki: > 10 µM
D(2) dopamine receptor [4]
  Ki: > 10 µM
[5]
  Ki: 1 µM
D(1A) dopamine receptor [6]
  Ki: > 10 µM
[7]
  Ki: > 10 µM
[8]
  Ki: 0.0159 µM and 0.0501 µM
[9]
  Ki: 1 µM
[10]
  Ki: > 10 µM
[11]
  Ki: 1 µM

## CC(N)Cc1c[nH]c2ccc(OCc3cccs3)cc12 (stereo not drawn) [NSC_5311036]
[1]
  Ki: 3.98 µM
Histamine H1 receptor
  Ki: > 10 µM
[12]
  Ki: 0.251 µM
[13]
  Ki: 1.26 µM
D(2) dopamine receptor [14]
  Ki: > 10 µM
[15]
  Ki: 0.501 µM
[16]
  Ki: > 10 µM
[17]
  Ki: > 10 µM
[8]
  Ki: 0.0251 µM
[10]
  Ki: > 10 µM
[18]
  Ki: > 10 µM
[11]
  Ki: > 10 µM
[19]
  Ki: > 10 µM
[20]
  Ki: > 10 µM
[21]
  Ki: > 10 µM
D(1A) dopamine receptor [22]
  Ki: > 10 µM
Histamine H2 receptor
  Ki: > 10 µM

## Cn1ccc2cc(NC(=O)Nc3cccnc3)ccc21 [SB 200646]
[1]
  Ki: 6.31 µM and 5.01 µM
[13]
  Ki: > 10 µM
[23]
  Ki: > 10 µM
D(2) dopamine receptor [4]
  Ki: > 10 µM
[5]
  Ki: > 10 µM
[24]
  Ki: 0.126 µM
[25]
  Ki: > 10 µM
[8]
  Ki: 0.0316 µM and 0.0631 µM
[26]
  Ki: > 10 µM
[27]
  Ki: > 10 µM
D(1A) dopamine receptor [22]
  Ki: > 10 µM
[28]
  Ki: > 10 µM
[29]
  Ki: 0.1 µM
[30]
  Ki: > 10 µM
